Measurements from US20240342148A1, “METHODS OF TREATING FACIOSCAPULOHUMERAL MUSCULAR DYSTROPHY WITH LOSMAPIMOD” (Fulcrum Therapeutics, Inc., priority 2021, published 2024).

Key:
[1] = system: subjects with FSHD; experiment: WB-MSK MRI composite scores (MFI, MFF, LMV); format: in vivo, human
Excerpt: The images were acquired in five different sections. The rotator cuff was imaged using a neck coil, torso and legs using anterior surface coils and integrated table coils, and the upper extremities using a surface and table coils, after the patient was repositioned such that the extremity was in the center of the MRI scanner. T1-weighted Dixon-images of 18 muscles bilaterally, 36 total, were acquired and water and fat images were reconstructed using the scanner built-in phase-sensitive reconstruction (Siemens: Dixon-Vibe; Philips: mDixon). Three different measures were calculated for each muscle. The muscle fat fraction (MFF) is the total fat fraction inside the muscle fascia. The muscle fat infiltration (MFI) represents the diffuse fat infiltration in the muscle tissue and is defined as the fat fraction of the muscle voxels that contain <50% fat. Therefore, MFI measures the MFF for muscle tissue that is not end-stage. The lean muscle volume (LMV) represents the total amount of functional muscle tissue and is measured by removing all fat within the muscle volume. Each muscle was categorized based on these measures and supported by prior literature as normal appearing (Category A, MFI<0.10; MFF<0.50), intermediate (Category B, MFI≥0.10; MFF<0.50), and late-stage (Category C, MFF≥0.50). Two composite scores were used to assess the treatment efficacy and correlation with relevant clinical outcome assessments. The treatment efficacy composite score includes only those muscles identified as normal appearing or at high risk for progression (Category A or B muscles) at baseline that were measurable at both observation timepoints, having no signal quality issues. The regional composite scores for correlations are composed of all muscles that were involved in the specific functional assessment of interest regardless of their categorization (FIG. 2). The scores were derived by scientists at the MRI Service Provider (AMRA Medical Inc.) in a blinded fashion, with no access to treatment assignment information. Measurements for muscles with major quality issues, (i.e., muscles with missing values), were imputed. Late-stage muscles were not included in the analysis as these contain high fat fraction which makes them challenging to quantify accurately, and likely are already not functional. A mixed-effects model for repeated measures (MMRM) was used to analyze the change from baseline in each composite MRI score (MFFtotal, LMVtotal, and MFItotal), with repeat number category, treatment group, visit, and treatment-by-visit interactions as fixed effects and baseline value of the parameter as a covariate. […]

[2] = system: subjects with FSHD; experiment: FSHD health index (FSHD-HI); set-up: species or system human; conditions: in vivo
Method: The FSHD health index questionnaire was administered at all visits except for Wk16. This is a FSHD-specific patient-reported measure of disease burden on activities of daily living, quality of life, and symptom prevalence and severity. It consists of a questionnaire with 116 items developed from qualitative interviews of patients followed by a national cross-sectional validation study. The measure consists of 14 subscales that measure a patient's perception of their ambulation and mobility, hand function, shoulder and arm function, emotional health, back/chest/abdomen strength, fatigue, pain, eating function, ability to do activities, communication ability, satisfaction in social situations, performance in social situations, body image and cognition. Scoring was performed centrally by the developer.

[3] = system: patients with FSHD1; experiment: Wearable sensor (Actimyo) physical activity, open label study; format: in vivo, human; conditions: over 1 year treatment; Mild or Upper group compared to Lower or Both group
Method: This study evaluated feasibility to monitor daily activity and assess functional outcomes using wearable sensor devices in an open label study (OLS) of losmapimod in facioscapulohumeral muscular dystrophy (FSHD). 14 patients with FSHD1 received 15 mg losmapimod twice per day for a 52 week open label treatment period.
Feasibility was measured by the reliability of the data over time and amount of background noise. The secondary objective was patients' compliance with using the wearable device.
Upper limb and lower limb mobility were evaluated with “Actimyo” made by Sysnav. Actimyo quantifies movements of patients with neuromuscular disorders such as Duchenne muscular dystrophy (DMD), Spinal amyotrophy (SMA), Parkinson's and records activity based on magneto-inertial navigation. Raw data from the sensors are loaded on to the internal memory of the docking station/charging unit, and transmitted daily via an internet connection to a remote storage platform. Participants are provided with two watch like sensors to measure movements: On the ankle for lower extremity movements like gait; and On the wrist for upper extremity movements like mobility. Two kinds of movements were evaluated: Free living movement, which was recorded by wearing two devices all day (12-16 hours); and Imposed movements (2 times per day), which were a set of movements evaluated twice daily.

In the case of `Cc1c(F)cc(C(=O)NC2CC2)cc1-c1ccc(C(=O)NCC(C)(C)C)cn1` [losmapimod, 6-(5-cyclopropylcarbamoyl-3-fluoro-2-methyl-phenyl)-N-(2,2-dimethylpropyl-)-nicotinamide], the “MFI or MFF in normal appearing muscles at baseline (A muscles), post-hoc” value ([1]; A muscles, compared to placebo) is reported as “little or no accumulation of fat”, the LMV vs placebo ([1]; B muscles) is reported as “no difference” and the “MFF fat replacement vs placebo” value ([1]; B muscles) is reported as “nonsignificant reduction”. The “MFI efficacy composite vs placebo” value ([1]; muscles at high risk of progression (B muscles), p=0.01) was “significantly less fat infiltration”, the FSHD-HI vs placebo [2] was “no difference” and the “Physical function as measured by gait velocity” value [3] was “tends to increase”.
